# Data from patent publication US5925648A, “Tricyclic N-cyanoimines useful as inhibitors of a farnesyl-protein transferase” (Schering Corporation, priority 1997, dated 1999).
# pIC50: −log10 of the molar value.
# Molecular target: T1, farnesyl protein transferase (Rattus norvegicus, UniProt Q02293+Q04631)
# T1 construct: partially purified rat brain farnesyl protein transferase (FPT); from tissue; host or cells: rat brain
# Assay: FPT IC50 (inhibition of farnesyl protein transferase, in vitro enzyme assay; Ras-CVLS farnesylation by partially purified rat brain FPT)
# Type: biochemical
# Protocol: 1. In vitro enzyme assays: FPT IC50 (inhibition of farnesyl protein transferase, in vitro enzyme assay) are determined by the methods disclosed in […] or WO 95/10516.
row,SMILES,pIC50
1,N#CN=C(NCc1ccc(S(N)(=O)=O)cc1)N1CCC(=C2c3ccc(Cl)c(Br)c3CCc3cc(Br)cnc32)CC1 [Example 74],7.82
2,N#CN=C(NCC1CCN(C(N)=O)CC1)N1CCC(=C2c3ccc(Cl)c(Br)c3CCc3cc(Br)cnc32)CC1 [Example 77],8.36
3,N#CN=C(NCc1ccncc1)N1CCC(=C2c3ccc(Cl)c(Br)c3CCc3cc(Br)cnc32)CC1 [Example 61],8.30
4,N#CN=C(NCC1CCNCC1)N1CCC(=C2c3ccc(Cl)c(Br)c3CCc3cc(Br)cnc32)CC1 [Example 76],8.33
5,N#CN=C(NCc1ccc[n+]([O-])c1)N1CCC(=C2c3ccc(Cl)c(Br)c3CCc3cc(Br)cnc32)CC1 [Example 81],8.34
6,N#CN=C(Nc1ccc2ncccc2c1)N1CCC(=C2c3ccc(Cl)cc3CCc3cc(Br)cnc32)CC1 [Example 46],6.82
7,N#CN=C(NCc1ccncc1)N1CCN(C2c3ccc(Cl)cc3CCc3cc(Br)cnc32)CC1 (stereo not drawn) [Example 43],7.96
8,N#CN=C(NCc1ccc2c(c1)OCO2)N1CCC(=C2c3ccc(Cl)c(Br)c3CCc3cc(Br)cnc32)CC1 [Example 72],< 7.00
9,N#CN=C(NCc1cccnc1)N1CCC(=C2c3ccc(Cl)c(Br)c3CCc3cc(Br)cnc32)CC1 [Example 75],8.32
10,N#CN=C(Nc1ccc2c(c1)COCO2)N1CCC(=C2c3ccc(Cl)cc3CCc3cccnc32)CC1 [Example 10],7.74
11,CSC(=NC#N)N1CCC(=C2c3ccc(Cl)c(Br)c3CCc3cc(Br)cnc32)CC1 [Example 66],7.85
12,N#CN=C(Nc1ccc2c(c1)COCO2)N1CCC(=C2c3ccc(Cl)c(Br)c3CCc3cccnc32)CC1 [Example 47],7.85
13,N#CN=C(Nc1ccc(N2CCOCC2)cc1)N1CCC(=C2c3ccc(Cl)c(Br)c3CCc3cc(Br)cnc32)CC1 [Example 80],7.42
14,N#CN=C(NCc1ccncc1)N1CCC(C2c3ccc(Cl)c(Br)c3CCc3cc(Br)cnc32)CC1 (stereo not drawn) [Example 67],8.77
15,N#CN=C(NCCCN1CCCC1=O)N1CCC(C2c3ccc(Cl)c(Br)c3CCc3cc(Br)cnc32)CC1 (stereo not drawn) [Example 68],8.15
16,N#CN/C(=N/Cc1ccc2c(c1)OCO2)N1CCC(=C2c3ccc(Cl)cc3CCc3cc(Br)cnc32)CC1 [Example 52],7.62
17,N#CN=C(NCc1ccncc1)N1CCC(=C2c3ccc(Cl)cc3CCc3cccnc32)CC1 [Example 78],7.19
18,N#CN=C(Nc1ccc2c(c1)OCCO2)N1CCC(=C2c3ccc(Cl)cc3CCc3cc(Br)cnc32)CC1 [Example 55],6.96
19,N#CN/C(=N/c1ccncc1)N1CCC(=C2c3ccc(Cl)cc3CCc3cc(Br)cnc32)CC1 [Example 54],< 6.96
20,N#CN=C(Nc1ccc2c(c1)COCO2)N1CCC(C2c3ccc(Cl)cc3C=Cc3cc(Br)cnc32)CC1 (stereo not drawn) [Example 34],5.02
21,N#CN=C(NCCOCCO)N1CCC(C2c3ccc(Cl)c(Br)c3CCc3cc(Br)cnc32)CC1 (stereo not drawn) [Example 69],8.43
22,N#CN=C(NC1CCN(Cc2ccccc2)CC1)N1CCC(=C2c3ccc(Cl)cc3CCc3cc(Br)cnc32)CC1 [Example 22],6.77
23,N#CN=C(c1ccncc1)N1CCC(C2c3ncc(Br)cc3CCc3cc(Cl)cc(Br)c32)CC1 (stereo not drawn) [Example 83],< 7.48
24,Cn1c(NC(=NC#N)N2CCC(=C3c4ccc(Cl)cc4CCc4cc(Br)cnc43)CC2)cc(=O)n(C)c1=O [Example 50],6.52
25,N#CN=C(Nc1ccc2c(c1)COCO2)N1CCN(C2c3ccc(Cl)cc3CCc3cc(Br)cnc32)CC1 (stereo not drawn) [Example 24],8.00
26,CSC(=NC#N)N1CCC(=C2c3ccc(Cl)c(Br)c3CCc3cc(Br)cnc32)CC1 [Example 56],7.38
27,COc1ccc2[nH]cc(CCNC(=NC#N)N3CCC(=C4c5ccc(Cl)cc5CCc5cc(Br)cnc54)CC3)c2c1 [Example 64],< 6.02
28,CS(=O)(=O)c1ccc(N/C(=N\C#N)N2CCC(=C3c4ccc(Cl)cc4CCc4cc(Br)cnc43)CC2)cc1 [Example 59],7.06

# Now from value to molecule:
row,pIC50,SMILES
1,7.06,N#CN=C(NCc1ccc(N)cc1)N1CCC(=C2c3ccc(Cl)cc3CCc3cc(Br)cnc32)CC1 [Example 53]
2,7.13,CN(C)CCCNC(=NC#N)N1CCC(=C2c3ccc(Cl)cc3CCc3cc(Br)cnc32)CC1 [Example 45]
3,> 6.39,CSC(=NC#N)N1CCC(=C2c3ccc(Cl)cc3CCc3cc(Br)cnc32)CC1 [Example 12]
4,7.77,N#CN=C(NCCO)N1CCC(=C2c3ccc(Cl)cc3CCc3cc(Br)cnc32)CC1 [Example 27]
5,7.27,CCOC(=NC#N)N1CCC(=C2c3ccc(Cl)cc3CCc3cc(Br)cnc32)CC1 [Example 16]
6,6.57,N#CN=C(N1CCCCC1)N1CCC(=C2c3ccc(Cl)cc3CCc3cc(Br)cnc32)CC1 [Example 32]
7,6.59,CN1CCN(NC(=NC#N)N2CCC(=C3c4ccc(Cl)cc4CCc4cc(Br)cnc43)CC2)CC1 [Example 31]
8,5.55,N#CN=C(N)N1CCC(=C2c3ccc(Cl)cc3CCc3cc(Br)cnc32)CC1 [Example 33]
9,7.19,N#C/N=C(\Nc1ccc([N+](=O)[O-])cc1)N1CCC(=C2c3ccc(Cl)cc3CCc3cc(Br)cnc32)CC1 [Example 48]
10,7.59,CSC(=NC#N)N1CCC(=C2c3ccc(Cl)cc3CCc3cc(Br)cnc32)CC1 [Example 73]
11,6.85,N#CN=C(Nc1cccnc1)N1CCC(=C2c3ccc(Cl)cc3CCc3cc(Br)cnc32)CC1 [Example 23]
12,6.14,N#CN=C(N1CCOCC1)N1CCC(=C2c3ccc(Cl)cc3CCc3cc(Br)cnc32)CC1 [Example 13]
13,7.89,N#CN=C(Nc1cc[n+]([O-])cc1)N1CCC(=C2c3ccc(Cl)cc3CCc3cc(Br)cnc32)CC1 [Example 49]
14,7.14,N#CN=C(NCc1ccco1)N1CCC(=C2c3ccc(Cl)cc3CCc3cc(Br)cnc32)CC1 [Example 51]

# Test system: Ras processing
# Assay: COS IC50, cell-based assay: COS cells activity inhibition of Ras processing
# Protocol: 2. Cell-based assay. COS IC50 values refer to the COS cells activity inhibition of Ras processing, are determined by the methods disclosed in […] or WO 95/10516.
row,SMILES,pIC50
1,CCOC(=O)N1CCC(NC(=NC#N)N2CCC(=C3c4ccc(Cl)cc4CCc4cc(Br)cnc43)CC2)CC1 [Example 15],6.25
2,N#CN=C(Nc1ccc2c(c1)COCO2)N1CCC(=C2c3ccc(Cl)cc3CCc3cccnc32)CC1 [Example 10],6.60
3,N#CN=C(Nc1ccc2c(c1)OCO2)N1CCC(=C2c3ccc(Cl)cc3CCc3cc(Br)cnc32)CC1 [Example 18],6.10
4,N#CN=C(Nc1ccc2c(c1)COCO2)N1CCN(C2c3ccc(Cl)cc3CCc3cc(Br)cnc32)CC1 (stereo not drawn) [Example 24],> 6.60
5,N#CN=C(Nc1ccc2c(c1)COCO2)N1CCC(=C2c3ccc(Cl)cc3CCc3cc(Br)cnc32)CC1 [Example 11],6.60
6,N#CN=C(Nc1ccccc1)N1CCC(=C2c3ccc(Cl)cc3CCc3cccnc32)CC1 [Example 14],5.60

# Second part, the molecule after the results:
row,pIC50,SMILES
1,6.55,N#CN=C(Nc1ccc(C#N)cc1)N1CCC(=C2c3ccc(Cl)cc3CCc3cc(Br)cnc32)CC1 [Example 37]
2,6.57,COc1ccc(NC(=NC#N)N2CCC(=C3c4ccc(Cl)cc4CCc4cc(Br)cnc43)CC2)cc1 [Example 25]
3,6.12,N#CN=C(NCc1ccccn1)N1CCC(=C2c3ccc(Cl)cc3CCc3cc(Br)cnc32)CC1 [Example 26]
4,5.59,N#CN=C(NCCO)N1CCC(=C2c3ccc(Cl)cc3CCc3cc(Br)cnc32)CC1 [Example 27]
5,6.55,N#CN=C(NCCc1ccncc1)N1CCC(=C2c3ccc(Cl)cc3CCc3cc(Br)cnc32)CC1 [Example 36]
6,5.64,CCOC(=NC#N)N1CCC(=C2c3ccc(Cl)cc3CCc3cc(Br)cnc32)CC1 [Example 16]
7,4.80,N#CN=C(NCc1cc[n+]([O-])cc1)N1CCC(=C2c3ccc(Cl)cc3CCc3cc(Br)cnc32)CC1 [Example 70]
8,5.80,CCCCNC(=NC#N)N1CCC(=C2c3ccc(Cl)cc3CCc3cc(Br)cnc32)CC1 [Example 20]
9,< 6.00,N#CN=C(NCc1ccc[n+]([O-])c1)N1CCC(=C2c3ccc(Cl)cc3CCc3cc(Br)cnc32)CC1 [Example 60]
10,6.32,N#CN=C(NC1CCCCC1)N1CCC(=C2c3ccc(Cl)cc3CCc3cc(Br)cnc32)CC1 [Example 19]
11,6.24,N#CN=C(Nc1ccc(F)cc1)N1CCC(=C2c3ccc(Cl)cc3CCc3cc(Br)cnc32)CC1 [Example 29]
12,6.15,N#CN=C(NCc1cccnc1)N1CCC(=C2c3ccc(Cl)cc3CCc3cc(Br)cnc32)CC1 [Example 41]
13,5.30,CNC(=NC#N)N1CCC(=C2c3ccc(Cl)cc3CCc3cc(Br)cnc32)CC1 [Example 17]
14,5.62,N#CN=C(Nc1cccnc1)N1CCC(=C2c3ccc(Cl)cc3CCc3cc(Br)cnc32)CC1 [Example 23]
15,5.40,N#CN=C(NCCCn1ccnc1)N1CCC(=C2c3ccc(Cl)cc3CCc3cc(Br)cnc32)CC1 [Example 42]
